Experimental data as given in patent US12390421B2, “Zwitterionic dendritic amphiphiles, zwitterionic dendrimers, zwitterionic telodendrimers, nanocarriers comprising same, and methods of making and using same” (The Research Foundation for the State University of New York, priority 2017, dated 2025).

System: SKOV-3 cancer cell
Test: Cellular uptake of protein/drug loaded nanocarriers
Assay type: cell-based
Description: Cellular uptake of protein/drug delivered by zwitterionic nanocarriers. The internalization of protein/drug loaded zwitterionic nanocarrier was studied against SKOV-3 cancer cell. […] Folate targeting group modification facilitates FITC-BSA-loaded NP_CB internalization into cells compared to non-targeted NP_CB. […] The ability of NPs to deliver drug into cells was studied using DOX as model drug by taking advantage of its intricate fluorescence.

Compound	cellular uptake of DOX (SKOV-3, DOX free or loaded, 2 h)	cellular uptake of FITC-BSA (SKOV-3, FITC-BSA free or loaded, 1 h)
COc1cccc2c1C(=O)c1c(O)c3c(c(O)c1C2=O)C[C@@](O)(C(=O)CO)C[C@@H]3O[C@H]1C[C@H](N)[C@H](O)[C@H](C)O1.Cl [free DOX, Doxorubicin hydrochloride]	Strong fluorescence and absolute presence of DOX in nucleus	
free FITC-BSA: FITC-labeled BSA, model protein		no fluorescence signal
